Experimental data published in PMC12670400, “LEKTI-Grafted Sunflower Trypsin Inhibitor: A Potential Therapeutic for Skin Diseases” (Journal of Medicinal Chemistry, 2025).
Bridge positions count the residues as written; N and C are the ends. Peptide text beside a SMILES is read from it.

Tests used:
KLK5 = biological target: T1, KLK5 (Homo sapiens, UniProt Q9Y337); experiment: Protease activity assay: inhibition of recombinant KLK5 (Boc-VPR-AMC substrate); type: biochemical; conditions: ratio of IC50 values
T1 construct: purchased R&D Systems 1108-SE
T1 sequence (Q9Y337 23-293): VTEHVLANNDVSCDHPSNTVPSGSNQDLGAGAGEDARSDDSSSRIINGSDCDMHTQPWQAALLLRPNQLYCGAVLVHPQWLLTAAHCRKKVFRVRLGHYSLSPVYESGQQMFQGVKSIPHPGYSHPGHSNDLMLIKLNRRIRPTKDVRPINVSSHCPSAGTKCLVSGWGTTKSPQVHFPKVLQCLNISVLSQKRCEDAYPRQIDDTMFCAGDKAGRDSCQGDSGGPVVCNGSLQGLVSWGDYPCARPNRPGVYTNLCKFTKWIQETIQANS
Procedure: Inhibitory activity against KLK5 was evaluated using the fluorogenic substrate Boc-VPR-AMC for KLK5 (Table ). […] The P1–P1′ reactive site (Arg5 to Ser6) is critical for inhibitor binding, with the P1′ position contributing up to 50% of the total association energy. , The conserved serine at P1′ in Bowman-Birk inhibitors (BBIs) is essential for function. […] Preservation of serine in the P1′ position restored inhibitory activity seen in 5 and 6. Preserving the native serine restored efficacy to the nanomolar range (5: 31 ± 7 nM; 6: 114 ± 11 nM).
Methods for biological experiment
SFTI analogues were created by individual amino acid substitutions in PYMOL (Python Molecular Graphics System) using the existing solution NMR structure of native SFTI - 1 (1JBL) found in the RCSB (Research Collaboratory for Structural Bioinformatics) database. Residues of 2 were mutated as follows: L5R, I10H, and F12W with conserved SFTI-1 backbone structure. Other SFTI based analogues were further modified using PYMOL. Currently, there are no SFTI-1 and Kallikrein 5 co-crystal structures found in the RCSB database. Superimposing the existing crystal structure of SFTI-1 and Trypsin complex (4XOJ) with Kallikrein 5 crystal structure (2PSX) was performed with PYMOL. Ab-initio docking between KLK5 and 2 were performed with HADDOCK 2.4 1, 2, with binding active site parameter set to Arg2, Cys3, Thr4, Arg5, Ser6 for 2 and Ser195, His57, and Asp102 for KLK5 catalytic triad. PRODIGY 3-5, set at 25 °C, was used to predict dissociation constant and binding interactions of docked clusters. Structural visualization and alignment were performed with PYMOL 6, and comparative sequence analysis was performed with MEGA11 7.
A fluorescence spectrometer using SpectraMax® i3x plate reader (Molecular Devices, United States) was used to measure the relative fluorescence unit (RFU) on a 96-well black microplate (Grenier Bio-one, cat no. 655074). The wavelengths were set to 360/460 nm (excitation/emission) for the substrate Boc-VPR-AMC (Bachem AG, cat no. 4003460) and 320/405nm for the substrate Mca-RPKPVE-Nval-WRK(Dnp)-NH2 Fluorogenic MMP Substrate (R&D Systems Biotechne, cat no.ES002). The Boc-VPR-AMC stock solution was prepared by dissolving the solid form in dimethyl sulfoxide to 100 mM. Mca-RPKPVE-Nval-WRK(Dnp)-NH2 fluorogenic MMP Substrate is supplied as stock solution at 10.0 mg/mL in dimethyl sulfoxide. Boc-VPR-AMC was used as a substrate for KLK5, 8 and 14. Mca-RPKPVE-Nval-WRK(Dnp)-NH2 was used as a substrate for KLK7. The ligand-only solution serves as a negative control (minimum RFU, 100% inhibition), and enzyme-only was served as positive (maximum RFU, 0% inhibition). The activities of proteases were measured and readout against the standard curve made in serial dilutions of tested recombinant KLKs, ranging from 0nM to 60nM. Each assay was done in triplicates and repeated at least for three times […]
Assessment of analogue mediated inhibition of KLK5, KLK7, KLK8, and KLK14 […]
Recombinant KLK5 (R&D Systems, cat no. 1108-SE) was diluted to a final concentration of 10 nM in 1X PBS (pH 8.0). KLK5 was pre -incubated on ice for 1 hour with serial dilutions of SFTI-derived analogues to assess inhibitory activity. After incubation, 20 µL of each mixture was transferred to we lls of a 96-well microplate in triplicates. The enzymatic reaction was initiated by adding 100 µL of Boc -VPR-AMC substrate (final concentration 100 µM) to each well. Fluorescence (RFU) was measured using a SpectraMax® i3x plate reader with chamber temperature maintained at 37°C. Readings were started at 0 minutes (baseline) and another […]
Recombinant KLK7 (R&D Systems , cat no. 2624-SE) and KLK14 (R&D Systems, cat no. 2664-SE) were activated by adding 1 mM CaCl ₂ 0.05% v/v Brij-35 (Sigma, cat no. […]
incubated at 37°C for 1 hour. Reactions were stopped by adding EDTA to a final concentration of 50 mM (Sigma, cat no. EDS-100G) KLK8 (catalytic domain only; R&D Systems, cat no. 2025-SE-010) was activated separately with 11 nM lysyl […]

[1] = test system: healthy donor keratinocytes; experiment: Transepithelial electrical resistance (TEER) assay, healthy donor keratinocytes; type: cell-based, human; conditions: 1 μM, 9 days, p > 0.05, n = 54
Excerpt: KLK5 regulates epidermal barrier homeostasis by targeting corneodesmosomal proteins involved in cell–cell adhesion, including desmoglein-1 (DSG1), desmocollin-1 (DSC1), and corneodesmosin (CDSN). Dysregulated KLK5 activity can accelerate the degradation of these adhesion molecules, leading to impaired corneocyte cohesion and disruption of the epithelial barrier. To assess whether control of KLK5 activity by lead 7 could improve barrier integrity, the resistance of epidermal sheets generated using NS and healthy donor keratinocytes was measured using a transepithelial electrical resistance (TEER) assay. Keratinocytes from NS keratinocyte and three healthy donors were seeded in 6-well plates and cultured in the medium with 1 μM of lead 7 or without. The medium was replaced every 3 days with fresh lead 7 added in the treated groups. TEER measurements were performed every other day, and cultures were maintained until TEER values reached a plateau (9 days).
Transepithelial Electrical Resistance (TEER) assay […]
Transepithelial electrical resistance (TEER) values in ohms (Ω) were measured using the EVOM™ Manual Resistance Meter (World Precision Instruments, cat no. EVM-MT-03-02). Background resistance was first recorded using inserts containing only medium (without cells). […]
One-way ANOVA was used for KLK5 activity study. […] TEER study data was analysed using the Wilcoxon […]

C[C@@H](O)[C@@H]1NC(=O)[C@@H]2CSSC[C@H](NC(=O)[C@H](CCC(=O)O)NC(=O)[C@@H]3CCCN3C(=O)[C@@H]3CCCN3C(=O)[C@H](CC(N)=O)NC(=O)[C@H](CO)NC(=O)[C@H](CCCNC(=N)N)NC1=O)C(=O)N[C@@H](Cc1c[nH]c3ccccc13)C(=O)N1CCC[C@H]1C(=O)N[C@@H](CC(N)=O)C(=O)NCC(=O)N[C@@H](Cc1ccccc1)C(=O)N2 [compound 7] (cyclo(GFCTRSNPPECWPN); disulfide 3-11)
increase in KLK5 inhibitory potency (IC50) compared to 2 (KLK5): 4 fold
increase in KLK5 inhibitory potency (IC50) relative to 1 (KLK5): 16 fold
TEER, treated versus untreated healthy donor keratinocytes [1]: no differences
